Legend:
[1] = test system: VEGF induced increases in intracellular calcium levels in HUVEC (human umbilical vein endothelial cells); experiment: VEGF Stimulated Ca++ Signal in vitro (FLIPR); format: cell-based; settings: VEGF 5 ng/mL; for IC50: 0.01 to 10.0 μM
Outline: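 IC50 values derive from % inhibition of the VEGF (5 ng/mL) calcium response, taken as max-min fluorescence at 516 nm in Fluo-4-loaded HUVEC. Compounds (0.1% DMSO final) were added 30 min before stimulation, at 10 μM or across 0.01–10.0 μM.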

[2] = molecular target: T1, cytoplasmic domain of the human VEGF receptor (VEGFR-2) (Homo sapiens, UniProt P35968); experiment: KDR Assay; format: biochemical; settings: His-VEGFR-2; 3.6 μM ATP
T1 construct: The cytoplasmic domain of the human VEGF receptor (VEGFR-2) was expressed as a Histidine-tagged fusion protein; Histidine tag
T1 sequence (P35968 786-1356): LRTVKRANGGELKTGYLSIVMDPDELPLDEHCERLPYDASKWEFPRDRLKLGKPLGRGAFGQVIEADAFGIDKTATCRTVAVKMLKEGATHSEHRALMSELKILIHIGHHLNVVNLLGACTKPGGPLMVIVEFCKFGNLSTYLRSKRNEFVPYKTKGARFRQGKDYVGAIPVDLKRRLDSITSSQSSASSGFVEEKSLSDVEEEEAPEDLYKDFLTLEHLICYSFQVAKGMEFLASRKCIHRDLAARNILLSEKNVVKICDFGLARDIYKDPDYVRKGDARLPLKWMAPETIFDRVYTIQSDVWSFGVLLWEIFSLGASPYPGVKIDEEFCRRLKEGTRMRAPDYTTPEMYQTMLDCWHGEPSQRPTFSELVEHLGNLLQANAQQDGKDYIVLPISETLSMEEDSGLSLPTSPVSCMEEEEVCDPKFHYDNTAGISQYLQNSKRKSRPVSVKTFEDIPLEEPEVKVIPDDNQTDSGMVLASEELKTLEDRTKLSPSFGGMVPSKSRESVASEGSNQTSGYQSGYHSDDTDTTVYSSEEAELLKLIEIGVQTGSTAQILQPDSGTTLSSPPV
Outline: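 IC50 taken from blank-corrected OD492 curves of an anti-phosphotyrosine peroxidase ELISA. Reaction: 10 min, 25 °C, 3.6 μM ATP, 50 mM Hepes pH 7.4 with 20 mM MgCl2, 0.1 mM MnCl2 and 5% DMSO, on poly-Glu-Tyr-coated wells, started with insect-cell-expressed His-VEGFR-2 cytoplasmic domain.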

| IC50 [2] [nM] | Compound | inhibition at 10 µM ([1]; Homo sapiens, 10 μM) [%] | IC50 [1] [nM] | IC50 ([1]; Homo sapiens) [nM] |
| --- | --- | --- | --- | --- |
| 230 | CCN(CC)CCCOc1ccc(NC=C2C(=O)Nc3cccc(F)c32)cc1F [Example 267, 3-{[4-(3-Diethylamino-propoxy)-3-fluoro-phenylamino]-methylene}-4-fluoro-1,3-dihydro-indol-2-one] |  |  | 1420 |
| 80 | COc1cccc(-c2ccc3c(c2)NC(=O)C3=CNc2ccc(N3CCN(C)CC3)cc2)c1 [Example 268, 6-(3-Methoxy-phenyl)-3-{[4-(4-methyl-piperazin-1-yl)-phenylamino]-methylene}-1,3-dihydro-indol-2-one] |  |  | ≥ 10000 |
| 1680 | COc1cccc(-c2ccc3c(c2)NC(=O)C3=CNc2ccc(N3CCOCC3)cc2)c1 [Example 269, 6-(3-Methoxy-phenyl)-3-{[4-morpholin-4-yl-phenylamino)-methylene]-1,3-dihydro-indol-2-one] |  |  | ≥ 10000 |
| 330 | O=C1Nc2cccc(F)c2C1=CNc1ccc(OCCN2CCCC2)cc1 [Example 273, 4-Fluoro-3-{[4-(2-pyrrolidin-1-yl-ethoxy)-phenylamino]-methylene}-1,3-dihydro-indol-2-one] |  |  | 1070 |
| 130 | O=C1Nc2ccc(Cl)cc2C1=CNc1ccc(OCCN2CCCC2)cc1 [Example 275, 5-Chloro-3-{[4-(2-pyrrolidin-1-yl-ethoxy)-phenylamino]-methylene}-1,3-dihydro-indol-2-one] |  | 620 | ≤ 1000 |
| 220 | COc1cccc(-c2ccc3c(c2)NC(=O)C3=CNc2ccc(OCCCN3CCCCC3)cc2)c1 [Example 276, 6-(3-Methoxy-phenyl)-3-{[4-(3-piperidin-1-yl-propoxy)-phenylamino]-methylene}-1,3-dihydro-indol-2-one] |  |  | 8810 |
| 250 | CCN(CC)CCCOc1ccc(NC=C2C(=O)Nc3cc(-c4cccc(OC)c4)ccc32)cc1 [Example 277, 3-{[4-(3-Diethylamino-propoxy)-phenylamino]-methylene}-6-(3-Methoxy-phenyl)-1,3-dihydro-indol-2-one] |  |  | ≥ 10000 |
| 320 | CN1CCCC(COc2ccc(NC=C3C(=O)Nc4cccc(F)c43)cc2)C1 (centres unmarked) [Example 281, 4-Fluoro-3-{[4-(1-methyl-piperidin-3-ylmethoxy)-phenylamino]-methylene}-1,3-dihydro-indol-2-one] |  | 730 | ≤ 1000 |
| 150 | CN1CCCC(COc2ccc(NC=C3C(=O)Nc4ccc(Cl)cc43)cc2)C1 (centres unmarked) [Example 283, 5-Chloro-3-{[4-(1-methyl-piperidin-3-ylmethoxy)-phenylamino]-methylene}-1,3-dihydro-indol-2-one] |  | 940 | ≤ 1000 |
| 110 | O=C1Nc2ccc(Cl)cc2C1=CNc1ccc(CCN2CCCCC2)cc1 [Example 285, 5-Chloro-3-{[4-(2-piperidin-1-yl-ethyl)-phenylamino]-methylene}-1,3-dihydro-indol-2-one] |  | 560 | ≤ 1000 |
| 110 | O=C1Nc2cccc(F)c2C1=CNc1ccc(CCN2CCCCC2)cc1 [Example 287, 4-Fluoro-3-{[4-(2-piperidin-1-yl-ethyl)-phenylamino]-methylene}-1,3-dihydro-indol-2-one] |  | 620 | ≤ 1000 |
| 210 | O=C1Nc2ccc(Cl)cc2C1=CNc1ccc(CN2CCOCC2)cc1 [Example 291, 5-Chloro-3-[(4-morpholin-4-ylmethyl-phenylamino)-methylene]-1,3-dihydro-indol-2-one] |  | 660 | ≤ 1000 |
| 470 | O=C1Nc2cccc(F)c2C1=CNc1ccc(CN2CCOCC2)cc1 [Example 293, 4-Fluoro-3-[(4-morpholin-4-ylmethyl-phenylamino)-methylene]-1,3-dihydro-indol-2-one] |  | 880 | ≤ 1000 |
| 270 | O=C1Nc2cccc(F)c2C1=CNc1ccc(NCCCN2CCOCC2)cc1 [Example 301, 4-Fluoro-3-{[4-(3-morpholin-4-yl-propylamino)-phenylamino]-methylene}-1,3-dihydro-indol-2-one] |  | 770 | ≤ 1000 |
| 310 | O=C1Nc2ccccc2C1=CNc1ccc(OCCCN2CCC(F)C2)cc1 (centres unmarked) [Example 305, 3-({4-[3-(3-Fluoro-pyrrolidin-1-yl)-propoxy]-phenylamino}-methylene)-1,3-dihydro-indol-2-one] |  | 550 | ≤ 1000 |

Second part, the compound before the results:

| Compound | IC50 [2] [nM] | inhibition at 10 µM ([1]; Homo sapiens, 10 μM) [%] | IC50 [1] [nM] | IC50 ([1]; Homo sapiens) [nM] |
| --- | --- | --- | --- | --- |
| O=C1Nc2ccc(Cl)cc2C1=CNc1ccc(NCCN2CCOCC2)cc1 [Example 245, 5-Chloro-3-{[4-(2-morpholin-4-yl-ethylamino)-phenylamino]-methylene}-1,3-dihydro-indol-2-one] | 140 | 95.5 |  |  |
| CCN(CC)CCCOc1ccc(NC=C2C(=O)Nc3ccccc32)cc1F [Example 248, 3-{[4-(3-Diethylamino-propoxy)-3-fluoro-phenylamino]-methylene}-1,3-dihydro-indol-2-one] | 630 |  | 710 | ≤ 1000 |
| O=C1Nc2cccc(F)c2C1=CNc1ccc(OCCCN2CCCCC2)cc1 [Example 255, 4-Fluoro-3-{[4-(3-piperidin-1-yl-propoxy)-phenylamino]-methylene}-1,3-dihydro-indol-2-one] | 440 |  |  | 1300 |
| Cc1cccc2c1C(=CNc1ccc(CN3CCCCC3)cc1)C(=O)N2 [Example 256, 4-Methyl-3-[(4-piperidin-1-ylmethyl-phenylamino)-methylene]-1,3-dihydro-indol-2-one] | 190 |  | 670 | ≤ 1000 |
| O=C1Nc2cccc(F)c2C1=CNc1ccc(CN2CCCCC2)cc1 [Example 257, 4-Fluoro-3-[(4-piperidin-1-ylmethyl-phenylamino)-methylene]-1,3-dihydro-indol-2-one] | 510 |  |  | 1630 |
| O=C1Nc2ccc(F)cc2C1=CNc1ccc(CN2CCCCC2)cc1 [Example 258, 5-Fluoro-3-[(4-piperidin-1-ylmethyl-phenylamino)-methylene]-1,3-dihydro-indol-2-one] | 560 |  | 720 | ≤ 1000 |
| O=C1Nc2ccc(Cl)cc2C1=CNc1ccc(CN2CCCCC2)cc1 [Example 260, 5-Chloro-3-[(4-piperidin-1-ylmethyl-phenylamino)-methylene]-1,3-dihydro-indol-2-one] | 300 |  | 880 | ≤ 1000 |
| O=C1Nc2cccc(F)c2C1=CNc1ccc(OCCN2CCCCC2)cc1 [Example 261, 4-Fluoro-3-{[4-(2-piperidin-1-yl-ethoxy)-phenylamino]-methylene}-1,3-dihydro-indol-2-one] | 390 |  |  | 1060 |
| O=C1Nc2ccc(Cl)cc2C1=CNc1ccc(OCCN2CCCCC2)cc1 [Example 262, 5-Chloro-3-{[4-(2-piperidin-1-yl-ethoxy)-phenylamino]-methylene}-1,3-dihydro-indol-2-one] | 210 |  | 870 | ≤ 1000 |
| CCN(CC)CCOc1ccc(NC=C2C(=O)Nc3ccccc32)cc1 [Example 265, 3-{[4-(2-Diethylamino-ethoxy)-phenylamino]-methylene}-1,3-dihydro-indol-2-one] | 610 |  | 530 | ≤ 1000 |
